# Read-outs that look alike come from different tables or passages of the source.
# Assays:
# Mtb H37Rv = tested on: Mtb H37Rv; parameters: species or system Mycobacterium tuberculosis; conditions: in vivo, po
# Mtb = conditions: in vivo; cited from earlier work
# Pks13-TE [1] = target: T1, Pks13-TE (Mycobacterium tuberculosis, UniProt I6X8D2); experiment: biochemical; format: binding
# WT H37Rv = experiment: microbe, parasite or virus in culture; format: cell-based, Mycobacterium tuberculosis; conditions: for MIC: Mycobacterium tuberculosis, H37RV
# Pks13-TE [2] = target: T1, Pks13-TE; experiment: biochemical
# [3] = tested on: pks13-TetON -ATc (hypomorph); format: cell-based, Mycobacterium tuberculosis
# [4] = tested on: pks13-TetON +ATc (Pks13-hypermorph); format: cell-based, Mycobacterium tuberculosis
# in vitro [5] = conditions: human, plasma
# [6] = in vivo, po
# in vitro [7] = conditions: mouse, microsomes
# in vitro [8] = conditions: mouse, plasma
# in vivo = conditions: female, CD-1, mouse
# [9] = Mouse pharmacokinetics studies; conditions: female, CD-1, mouse, plasma
# [10] = Metabolic stability in mouse liver microsomes (MLMs)
# [11] = read-out: MIC (whole cell activity)
# T1 sequence (I6X8D2 1451-1733 limits assumed): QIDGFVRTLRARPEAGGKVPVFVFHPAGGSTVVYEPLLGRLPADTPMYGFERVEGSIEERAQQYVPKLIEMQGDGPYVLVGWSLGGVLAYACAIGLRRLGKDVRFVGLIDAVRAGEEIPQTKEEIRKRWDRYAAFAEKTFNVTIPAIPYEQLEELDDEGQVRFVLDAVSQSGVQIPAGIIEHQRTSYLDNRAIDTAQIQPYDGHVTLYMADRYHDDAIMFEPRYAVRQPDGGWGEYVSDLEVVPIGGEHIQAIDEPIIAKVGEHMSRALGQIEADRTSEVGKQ
smiles,measurement,setting,value
"NNC(=O)c1ccncc1 [INH, Isoniazid, reference compound]",reduction in CFU (lung),Mtb H37Rv; 25 mg/kg,~1.5 log10
same,reduction of the burden,Mtb,1 log10
CC(=O)N1CCN(C(=O)C2CCN(c3nc(C)cc(C(=O)NCc4ccccc4)n3)CC2)CC1 [X13045],IC50,Pks13-TE [1]; IC50 (uM),15.1 µM
same,MIC,WT H37Rv; read-out: MIC (Mtb inhibition),390 µM
same,MIC,WT H37Rv; [11],390 µM
same,MIC,WT H37Rv; read-out: WT H37Rv MIC (uM),390 µM
same,IC50,Pks13-TE [2],15 µM
same,Hypomorph MIC fold shift (WT/-ATc),[3],1.5 fold
COCC1(CN(C)C(=O)c2ccc(CCn3cc(-c4ccc(-c5cc(OC)ccc5OC)nc4)nn3)cc2)CC1 [X20403],Hypermorph MIC fold shift (+ATc/WT),[4],2.3 fold
same,IC50,Pks13-TE [1]; IC50 in the TAMRA binding assay,0.5 µM
same,MIC,WT H37Rv; read-out: MIC (Mtb inhibition),0.05 µM
same,MIC,WT H37Rv; read-out: WT H37Rv MIC (uM),0.05 µM
same,IC50,Pks13-TE [2],0.057 µM
same,Hypomorph MIC fold shift (WT/-ATc),[3],0.88 fold
COc1ccc(OC)c(-c2ccc(-c3cn(CCc4ccc(C(=O)N(C)C)cc4)nn3)cn2)c1 [X20404],"fraction unbound at 4 h, 10000 ng/mL",in vitro [5],0.044
same,fold higher maximum concentration in blood compared to three other compounds,"[6]; female, CD-1, mouse, 25 mg/kg",~10 fold
same,plasma concentrations relative to MIC,"[6]; mouse, 200 mg/kg",above the MIC
same,microsomal CLint at 5 μM,in vitro [7],26.2 µL/min/mg
same,reduction of the lung CFU compared to untreated control,Mtb H37Rv; 100 mg/kg,approximately 0.4 log10
same,reduction of the lung CFU compared to untreated control,Mtb H37Rv; 200 mg/kg,0.8 log10
same,"fraction unbound at 4 h, 10000 ng/mL",in vitro [8]; mouse PPB (%),0.023
same,"fraction unbound at 4 h, 10000 ng/mL",in vitro [8]; plasma protein binding,0.02
same,Hypermorph MIC fold shift (+ATc/WT),[4],2.3 fold
same,IC50,Pks13-TE [1]; IC50 (enzyme inhibition),0.4 µM
same,IC50,Pks13-TE [1]; IC50 (uM),0.43 µM
same,Vd,in vivo,0.3 L/kg
same,bioavailability,in vivo,8%
same,clearance,in vivo,0.372 L/h/kg
same,MIC,WT H37Rv; read-out: MIC (Mtb inhibition),0.25 µM
same,MIC,WT H37Rv; [11],0.25 µM
same,MIC,WT H37Rv; read-out: WT H37Rv MIC (uM),0.25 µM
same,half-life,"[9]; intravenous, 5 mg/kg",36 min
same,AUC(0-t),"[9]; iv, 5 mg/kg",13.5 µg·h/mL
same,AUC(0-t),"[9]; po, 25 mg/kg",3.7 µg·h/mL
same,AUC(0-t),"[9]; po, 50 mg/kg",14.2 µg·h/mL
same,AUC(0-t),"[9]; po, 100 mg/kg",33.3 µg·h/mL
same,AUC(0-t),"[9]; po, 200 mg/kg",98.1 µg·h/mL
same,half-life at 5 μM,[10],26.8 min
same,Hypomorph MIC fold shift (WT/-ATc),[3],2.9 fold
Cc1cc(C(=O)NCc2ccccc2)nc(N2CCC(C(=O)N3CCN(C(=O)c4ccc(-n5nc(C)cc5C)nc4)CC3)CC2)n1 [X22239],Hypermorph MIC fold shift (+ATc/WT),[4],3.7 fold
same,IC50,Pks13-TE [1]; read-out: IC50,0.64 µM
same,MIC,WT H37Rv; read-out: WT H37Rv MIC,0.066 µM
same,Hypomorph MIC fold shift (WT/-ATc),[3],1.9 fold
Cc1cc(C(=O)NCc2ccccc2)nc(N2CCC(C(=O)N3CCN(C(=O)c4ccc5nc(C)ccc5c4)CC3)CC2)n1 [X22275],Hypermorph MIC fold shift (+ATc/WT),[4],2.7 fold
same,IC50,Pks13-TE [1]; read-out: IC50,0.62 µM
same,MIC,WT H37Rv; read-out: WT H37Rv MIC,0.048 µM
same,Hypomorph MIC fold shift (WT/-ATc),[3],2.3 fold
Cc1cc(CNC(=O)c2cc(C)nc(N3CCC(C(=O)N4CCN(C(=O)c5ccc6nc(C)ccc6c5)CC4)CC3)n2)cc(C)n1 [X22277],Hypermorph MIC fold shift (+ATc/WT),[4],1.8 fold
same,IC50,Pks13-TE [1]; read-out: IC50,0.53 µM
same,MIC,WT H37Rv; read-out: WT H37Rv MIC,0.54 µM
same,Hypomorph MIC fold shift (WT/-ATc),[3],2.6 fold
Cc1cc(C(=O)NCc2ccccc2)nc(N2CCC(C(=O)N3CCN(C(=O)c4cc5c(Cl)cccn5n4)CC3)CC2)n1 [X22324],Hypermorph MIC fold shift (+ATc/WT),[4],3.7 fold
same,IC50,Pks13-TE [1]; read-out: IC50,0.53 µM
same,WT H37Rv MIC,WT H37Rv,0.22 µM
same,Hypomorph MIC fold shift (WT/-ATc),[3],3.3 fold
Cc1cc(C(=O)NCc2ccccc2)nc(N2CC(C(=O)N3CCN(C(=O)c4ccc5nc(C)ccc5c4)CC3)C2)n1 [X22327],Hypermorph MIC fold shift (+ATc/WT),[4],3.6 fold
same,IC50,Pks13-TE [1]; read-out: IC50,0.56 µM
same,MIC,WT H37Rv; read-out: WT H37Rv MIC,1.3 µM
same,Hypomorph MIC fold shift (WT/-ATc),[3],3.1 fold

# Reference: paper PMC11091879, “Inhibitors of the Thioesterase Activity of Mycobacterium tuberculosis Pks13 Discovered Using DNA-Encoded Chemical Library Screening” (ACS Infectious Diseases, 2024)
